Target: T1, receptor tyrosine kinase AXL (Homo sapiens, UniProt P30530)
T1 construct: 50 μL of AXL kinase domain recombinant protein diluted in reaction buffer was added to start the reaction; made in house; host or cells: insect cells (baculovirus expression system)
T1 sequence (P30530 536-807 limits assumed): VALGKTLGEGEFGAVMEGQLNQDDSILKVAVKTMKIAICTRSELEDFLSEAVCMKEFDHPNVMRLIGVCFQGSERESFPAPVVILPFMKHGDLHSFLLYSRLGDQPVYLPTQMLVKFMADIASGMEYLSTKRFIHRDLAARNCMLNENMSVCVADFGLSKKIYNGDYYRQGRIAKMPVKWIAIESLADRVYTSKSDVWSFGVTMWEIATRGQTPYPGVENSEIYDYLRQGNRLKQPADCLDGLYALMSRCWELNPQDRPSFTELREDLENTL
Assay: Enzyme activity of receptor tyrosine kinase AXL (ELISA)
Type: biochemical
Method: Detection method: Enzyme-linked immunosorbent assay (ELISA)
Tested receptor tyrosine kinase: AXL
The full-wavelength microplate reader for experiment reading was a product of Molecular Device, model: SpectraMax 190; the experiment water was distilled water produced by Sinopharm Group.
Compound preparation: The compounds were centrifuged at 12,000 g for 5 min, and DMSO was added to prepare a 10^−2M stock solution, vortexed evenly and sonicated for 10 min for use, and stored at −40° C. During the test, the compound was diluted from the stock solution to 100 times the tested concentration with DMSO (the DMSO concentration in the system was 1%).
1. […] Discard the liquid from the well. The plate was washed and washed three times with T-PBS (0.1% Tween-20 in potassium-free PBS, 200 μL/well) for 5 minutes each time.
2. 49 μL of ATP solution diluted with reaction buffer (50 mM HEPES pH 7.4, 50 mM MgCl2, 0.5 mM MnCl2, 0.2 mM Na3VO4, 1 mM DTT) was added to each well, and […] of the tested compound was added to each well, and then 50 μL of AXL kinase domain recombinant protein diluted in reaction buffer was added to start the reaction. Two control wells without ATP were added in each experiment. (100 rpm) Reacted in 37° C. shaker for 1 hour. Discard the liquid from the well, and the plate was washed with T-PBS for three times.
3. […] Discard the liquid from the well, and the plate was washed with T-PBS for three times.
4. The horseradish peroxidase-labeled goat anti-mouse second antibody dilution (antibody diluted 1:2000 with BSA 5 mg/mL in T-PBS), 100 μL/well, and reacted in 37° C. shaker for 0.5 hours. Discard the liquid from the well, and the plate was washed with T-PBS for three times.
6. The reaction was quenched with 50 μL/well 2M […], and read at 490 nm using a tunable microplate reader VERSAmax.
The IC50 values were obtained by four-parameter regression analysis using the software supplied with the microplate reader.

Compound: COCCOc1cc2ncnc(Oc3ccc(NC(=O)c4c5n(n(-c6ccc(F)cc6)c4=O)CCCC5)cc3F)c2cc1OCCOC [DC621044, N-(4-((6,7-bis(2-methoxyethoxy)quinazolin-4-yl)oxy)-3-fluorophenyl)-1-(4-fluorophenyl)-2-oxo-1,2,4,5,6,7-hexahydropyrazolo[1,5-a]pyridine-3-formamide]
- IC50: 7.6 ± 0.3 nM
- inhibition at 0.001 µM (1 nM, read-out: AXL activity Inhibitory rate(%)): 20.7%
- inhibition at 0.01 µM (10 nM, read-out: AXL activity Inhibitory rate(%)): 61.2%
- inhibition at 0.1 µM (100 nM, read-out: AXL activity Inhibitory rate(%)): 80.7%

Source: patent publication US12497394B2, “Fused-cyclic pyrazolone formamide compound and preparation method therefor, pharmaceutical composition and use thereof” (SHANGHAI INSTITUTE OF MATERIA MEDICA, CHINESE ACADEMY OF …, priority 2018, dated 2025)
